Assay results published in the NIST ThermoML archive (doi:10.1007/s10765-005-8096-3).
Numbers after ± are expanded uncertainties.

Test: refractive index (Na D-line) (dimensionless); xn = mol fraction of the nth substance listed
Details: 101 kPa, Liquid, Standard Abbe refractometry

CCCCOC(C)=O [butyl ethanoate] + Cc1ccc(C)cc1
refractive index
Details	293.15 K	298.15 K	303.15 K	308.15 K	313.15 K
x1 = 0.0494	1.49045 ± 0.0007	1.48779 ± 0.0007	1.48504 ± 0.0007	1.48238 ± 0.00069	1.47977 ± 0.00069
x1 = 0.1014	1.48487 ± 0.00071	1.48216 ± 0.00071	1.4794 ± 0.00069	1.47685 ± 0.00069	1.47409 ± 0.0007
x1 = 0.1494	1.4798 ± 0.0007	1.4771 ± 0.0007	1.47436 ± 0.0007	1.47174 ± 0.0007	1.46903 ± 0.0007
x1 = 0.2012	1.47424 ± 0.00071	1.47153 ± 0.00071	1.46878 ± 0.00069	1.46623 ± 0.00069	1.46356 ± 0.0007
x1 = 0.248	1.46931 ± 0.0007	1.46663 ± 0.0007	1.46387 ± 0.00069	1.46134 ± 0.00069	1.45863 ± 0.0007
x1 = 0.3077	1.46309 ± 0.0007	1.46041 ± 0.0007	1.45768 ± 0.00069	1.45514 ± 0.00069	1.45247 ± 0.0007
x1 = 0.3519	1.45847 ± 0.0007	1.45583 ± 0.0007	1.45312 ± 0.00069	1.45058 ± 0.00069	1.44789 ± 0.0007
x1 = 0.404	1.45307 ± 0.00069	1.45044 ± 0.0007	1.44776 ± 0.00069	1.44522 ± 0.00068	1.44259 ± 0.00069
x1 = 0.4519	1.44815 ± 0.00069	1.44554 ± 0.00069	1.44286 ± 0.00069	1.44032 ± 0.00068	1.4377 ± 0.00069
x1 = 0.4999	1.44322 ± 0.00069	1.44061 ± 0.00069	1.43796 ± 0.00069	1.43542 ± 0.00068	1.43282 ± 0.00068
x1 = 0.5505	1.43808 ± 0.00069	1.4355 ± 0.00069	1.43288 ± 0.00068	1.43034 ± 0.00068	1.42775 ± 0.00069
x1 = 0.5991	1.43317 ± 0.00068	1.4306 ± 0.00069	1.42798 ± 0.00068	1.42546 ± 0.00068	1.42286 ± 0.00068
x1 = 0.6518	1.42787 ± 0.00068	1.42531 ± 0.00068	1.42272 ± 0.00068	1.42021 ± 0.00068	1.41762 ± 0.00068
x1 = 0.6993	1.42315 ± 0.00068	1.42063 ± 0.00068	1.41806 ± 0.00068	1.41551 ± 0.00068	1.41295 ± 0.00068
x1 = 0.749	1.41825 ± 0.00068	1.41572 ± 0.00068	1.41319 ± 0.00068	1.41066 ± 0.00068	1.40812 ± 0.00068
x1 = 0.799	1.41333 ± 0.00067	1.41087 ± 0.00067	1.40834 ± 0.00068	1.40581 ± 0.00068	1.40327 ± 0.00067
x1 = 0.8519	1.4083 ± 0.00067	1.40578 ± 0.00067	1.40327 ± 0.00067	1.40076 ± 0.00067	1.39826 ± 0.00067
x1 = 0.8979	1.40384 ± 0.00067	1.40137 ± 0.00067	1.39885 ± 0.00067	1.39641 ± 0.00067	1.3939 ± 0.00067
x1 = 0.9489	1.39894 ± 0.00066	1.39654 ± 0.00066	1.39405 ± 0.00067	1.39155 ± 0.00067	1.3891 ± 0.00066
